# Columns and labels:
# [1] = test system: CCRF-CEM; assay: Growth inhibition of human CCRF-CEM cells after 48 hrs by sulforhodamine B assay; assay type: functional
# [2] = test system: RXF 393; assay: Growth inhibition of human RXF393 cells after 48 hrs by sulforhodamine B assay; assay type: functional; details: RXF 393, 48 h
# [3] = test system: CAKI-1; assay: Growth inhibition of human CAKI-1 cells after 48 hrs by sulforhodamine B assay; assay type: functional; details: CAKI-1, 48 h; for CC50: read-out: LC50 (the source's name)
# [4] = test system: TK-10; assay: Growth inhibition of human TK10 cells assessed as cell growth at 10 uM after 48 hrs by sulforhodamine B assay; assay type: functional; details: TK-10, 48 h, read-out: Activity
# [5] = test system: A498; assay: Growth inhibition of human A498 cells after 48 hrs by sulforhodamine B assay; assay type: functional, cell-based; details: A498, 48 h; for CC50: read-out: LC50 (the source's name)
# [6] = test system: HT-29; assay: Growth inhibition of human HT-29 cells assessed as cell growth at 10 uM after 48 hrs by sulforhodamine B assay; assay type: functional; details: HT-29, 48 h, read-out: Activity
# [7] = test system: SW-620; assay: Growth inhibition of human SW620 cells assessed as cell growth at 10 uM after 48 hrs by sulforhodamine B assay; assay type: functional; details: SW-620, 48 h, read-out: Activity
# [8] = test system: SK-MEL-5; assay: Growth inhibition of human SK-MEL-5 cells assessed as cell growth at 10 uM after 48 hrs by sulforhodamine B assay; assay type: functional; details: SK-MEL-5, 48 h, read-out: Activity
# [9] = test system: ACHN; assay: Growth inhibition of human ACHN cells after 48 hrs by sulforhodamine B assay; assay type: functional; details: for CC50: read-out: LC50 (the source's name)
# [10] = test system: Malme-3M; assay: Growth inhibition of human MALME-3M cells assessed as cell growth at 10 uM after 48 hrs by sulforhodamine B assay; assay type: functional; details: read-out: Activity
# [11] = test system: OVCAR-8; assay: Growth inhibition of human OVCAR8 cells after 48 hrs by sulforhodamine B assay; assay type: functional; details: OVCAR-8, 48 h; for CC50: read-out: LC50 (the source's name)
# [12] = test system: MCF7; assay: Growth inhibition of human MCF7 cells after 48 hrs by sulforhodamine B assay; assay type: functional; details: MCF7, 48 h
# [13] = test system: KM12; assay: Growth inhibition of human KM12 cells after 48 hrs by sulforhodamine B assay; assay type: functional, cell-based; details: KM12, 48 h; for CC50: read-out: LC50 (the source's name)
# [14] = test system: CAKI-1; assay: Growth inhibition of human CAKI-1 cells assessed as cell growth at 10 uM after 48 hrs by sulforhodamine B assay; assay type: functional; details: CAKI-1, 48 h, read-out: Activity
# [15] = test system: SK-MEL-5; assay: Growth inhibition of human SK-MEL-5 cells after 48 hrs by sulforhodamine B assay; assay type: functional; details: SK-MEL-5, 48 h
# [16] = test system: U-251; assay: Growth inhibition of human U251 cells assessed as cell growth at 10 uM after 48 hrs by sulforhodamine B assay; assay type: functional; details: U-251, 48 h, read-out: Activity
# [17] = test system: NCI-H522; assay: Growth inhibition of human NCI-H522 cells after 48 hrs by sulforhodamine B assay; assay type: functional; details: NCI-H522, 48 h
# [18] = test system: HT-29; assay: Growth inhibition of human HT-29 cells after 48 hrs by sulforhodamine B assay; assay type: functional; details: HT-29, 48 h; for CC50: read-out: LC50 (the source's name)
# [19] = test system: SW-620; assay: Growth inhibition of human SW620 cells after 48 hrs by sulforhodamine B assay; assay type: functional; details: SW-620, 48 h; for CC50: read-out: LC50 (the source's name)
# [20] = test system: UACC-257; assay: Growth inhibition of human UACC257 cells after 48 hrs by sulforhodamine B assay; assay type: functional; details: UACC-257, 48 h; for CC50: read-out: LC50 (the source's name)
# [21] = test system: U-251; assay: Growth inhibition of human U251 cells after 48 hrs by sulforhodamine B assay; assay type: functional; details: U-251, 48 h
# [22] = test system: NCI-H23; assay: Growth inhibition of human NCI-H23 cells assessed as cell growth at 10 uM after 48 hrs by sulforhodamine B assay; assay type: functional; details: NCI-H23, 48 h, read-out: Activity
# [23] = test system: HOP-62; assay: Growth inhibition of human HOP62 cells assessed as cell growth at 10 uM after 48 hrs by sulforhodamine B assay; assay type: functional; details: HOP-62, 48 h, read-out: Activity
# [24] = test system: BT-549; assay: Growth inhibition of human BT549 cells assessed as cell growth at 10 uM after 48 hrs by sulforhodamine B assay; assay type: functional; details: BT-549, 48 h, read-out: Activity
# [25] = test system: RPMI-8226; assay: Growth inhibition of human RPMI8226 cells assessed as cell growth at 10 uM after 48 hrs by sulforhodamine B assay; assay type: functional; details: RPMI-8226, 48 h, read-out: Activity
# [26] = test system: NCI-H23; assay: Growth inhibition of human NCI-H23 cells after 48 hrs by sulforhodamine B assay; assay type: functional; details: NCI-H23, 48 h
# [27] = test system: OVCAR-5; assay: Growth inhibition of human OVCAR5 cells after 48 hrs by sulforhodamine B assay; assay type: functional; details: OVCAR-5, 48 h
# [28] = test system: HOP-92; assay: Growth inhibition of human HOP92 cells assessed as cell growth at 10 uM after 48 hrs by sulforhodamine B assay; assay type: functional; details: HOP-92, 48 h, read-out: Activity
# [29] = test system: PC-3; assay: Growth inhibition of human PC3 cells assessed as cell growth at 10 uM after 48 hrs by sulforhodamine B assay; assay type: functional; details: PC-3, 48 h, read-out: Activity
# [30] = test system: OVCAR-4; assay: Growth inhibition of human OVCAR4 cells after 48 hrs by sulforhodamine B assay; assay type: functional; details: OVCAR-4, 48 h
# [31] = test system: SN12C; assay: Growth inhibition of human SN12C cells assessed as cell growth at 10 uM after 48 hrs by sulforhodamine B assay; assay type: functional; details: read-out: Activity
# [32] = test system: SR; assay: Growth inhibition of human SR cells after 48 hrs by sulforhodamine B assay; assay type: functional; details: for CC50: read-out: LC50 (the source's name)
# [33] = test system: SK-MEL-28; assay: Growth inhibition of human SK-MEL-28 cells assessed as cell growth at 10 uM after 48 hrs by sulforhodamine B assay; assay type: functional; details: SK-MEL-28, 48 h, read-out: Activity
# [34] = test system: A549; assay: Growth inhibition of human A549/ATCC cells assessed as cell growth at 10 uM after 48 hrs by sulforhodamine B assay; assay type: functional; details: A549, 48 h, read-out: Activity
# [35] = test system: KM12; assay: Growth inhibition of human KM12 cells assessed as cell growth at 10 uM after 48 hrs by sulforhodamine B assay; assay type: functional; details: KM12, 48 h, read-out: Activity
smiles,measurement,setting,value
COc1cc(-c2nn(-c3cccc(NC(=O)c4ccc(N5CCOCC5)c(C(F)(F)F)c4)c3)cc2-c2ccncc2)ccc1Cl,GI50,[1],0.236 µM
same,LC50,[1],> 100 µM
same,TGI,[1],> 100 µM
same,GI50,[2],0.199 µM
same,LC50 (concentration killing 50% of cells),[2],> 100 µM
same,TGI,[2],0.674 µM
same,GI50,[3],0.36 µM
same,TGI,[3],8.12 µM
same,CC50,[3],> 100 µM
same,growth at 10 µM,[4],17.8%
same,GI50,[5],0.227 µM
same,IC50,[5],0.23 µM
same,TGI,[5],1.08 µM
same,CC50,[5],> 100 µM
same,growth at 10 µM,[6],-13.3%
same,growth at 10 µM,[7],25.2%
same,growth at 10 µM,[8],3.41%
same,GI50,[9],0.564 µM
same,TGI,[9],> 100 µM
same,CC50,[9],> 100 µM
same,growth at 10 µM,[10],36.2%
same,GI50,[11],0.468 µM
same,TGI,[11],> 100 µM
same,CC50,[11],> 100 µM
same,GI50,[12],0.285 µM
same,LC50,[12],> 100 µM
same,TGI,[12],> 1 µM
same,GI50,[13],0.248 µM
same,IC50,[13],0.25 µM
same,TGI,[13],6.6 µM
same,CC50,[13],> 100 µM
same,growth at 10 µM,[14],39.9%
same,GI50,[15],0.112 µM
same,LC50 (concentration killing 50% of cells),[15],7.64 µM
same,TGI,[15],0.675 µM
same,growth at 10 µM,[16],2.49%
same,GI50,[17],0.107 µM
same,LC50 (concentration killing 50% of cells),[17],> 100 µM
same,TGI,[17],3.53 µM
same,GI50,[18],0.38 µM
same,TGI,[18],1.52 µM
same,CC50,[18],> 100 µM
same,GI50,[19],0.241 µM
same,TGI,[19],> 100 µM
same,CC50,[19],> 100 µM
same,GI50,[20],0.935 µM
same,TGI,[20],8.14 µM
same,CC50,[20],> 100 µM
same,GI50,[21],0.399 µM
same,LC50 (concentration killing 50% of cells),[21],60.7 µM
same,TGI,[21],3.95 µM
same,growth at 10 µM,[22],15.6%
same,growth at 10 µM,[23],29.4%
same,growth at 10 µM,[24],14.3%
same,growth at 10 µM,[25],8.3%
same,GI50,[26],0.87 µM
same,LC50,[26],> 100 µM
same,TGI,[26],20.7 µM
same,GI50,[27],1.45 µM
same,LC50 (concentration killing 50% of cells),[27],> 100 µM
same,TGI,[27],> 100 µM
same,growth at 10 µM,[28],11.5%
same,growth at 10 µM,[29],8.17%
same,GI50,[30],0.957 µM
same,LC50 (concentration killing 50% of cells),[30],> 100 µM
same,TGI,[30],> 100 µM
same,growth at 10 µM,[31],31%
same,GI50,[32],0.0369 µM
same,TGI,[32],> 100 µM
same,CC50,[32],> 100 µM
same,growth at 10 µM,[33],28.4%
same,growth at 10 µM,[34],3.58%
same,growth at 10 µM,[35],5.64%
O=C(Nc1cccc(-n2cc(-c3ccncc3)c(-c3ccc(Cl)c(O)c3)n2)c1)c1ccc(N2CCOCC2)c(C(F)(F)F)c1,GI50,[1],1.82 µM
same,LC50,[1],> 50 µM
same,TGI,[1],> 50 µM
same,GI50,[2],0.626 µM
same,LC50 (concentration killing 50% of cells),[2],> 50 µM
same,TGI,[2],2.9 µM
same,GI50,[3],2.78 µM
same,TGI,[3],24.6 µM
same,CC50,[3],> 50 µM
same,growth at 10 µM,[4],119%
same,GI50,[5],15.5 µM
same,IC50,[5],15.5 µM
same,TGI,[5],> 50 µM
same,CC50,[5],> 50 µM
same,growth at 10 µM,[6],98%
same,growth at 10 µM,[7],6.29%
same,growth at 10 µM,[8],50.8%
same,GI50,[9],1.92 µM
same,TGI,[9],> 50 µM
same,CC50,[9],> 50 µM
same,growth at 10 µM,[10],10.7%
same,GI50,[11],3.16 µM
same,TGI,[11],> 50 µM
same,CC50,[11],> 50 µM
same,GI50,[12],2.81 µM
same,LC50,[12],> 50 µM
same,TGI,[12],> 50 µM
same,GI50,[13],1.94 µM
same,TGI,[13],> 50 µM
same,CC50,[13],> 50 µM
same,growth at 10 µM,[14],81.2%
same,GI50,[15],2.47 µM
same,LC50 (concentration killing 50% of cells),[15],31.8 µM
same,TGI,[15],10.2 µM
same,growth at 10 µM,[16],11.8%
same,GI50,[17],2.31 µM
same,LC50 (concentration killing 50% of cells),[17],> 50 µM
same,TGI,[17],44 µM
same,GI50,[18],14.4 µM
same,TGI,[18],> 50 µM
same,CC50,[18],> 50 µM
same,GI50,[19],1.72 µM
same,TGI,[19],5.68 µM
same,CC50,[19],> 50 µM
same,GI50,[20],6.3 µM
same,TGI,[20],36.8 µM
same,CC50,[20],> 50 µM
same,GI50,[21],1.85 µM
same,LC50 (concentration killing 50% of cells),[21],> 50 µM
same,TGI,[21],24.9 µM
same,growth at 10 µM,[22],61.3%
same,growth at 10 µM,[23],40.4%
same,growth at 10 µM,[24],63.6%
same,growth at 10 µM,[25],5.19%
same,GI50,[26],4.2 µM
same,LC50,[26],> 50 µM
same,TGI,[26],30.1 µM
same,GI50,[27],> 50 µM
same,LC50 (concentration killing 50% of cells),[27],> 50 µM
same,TGI,[27],> 50 µM
same,growth at 10 µM,[28],10.2%
same,growth at 10 µM,[29],27.2%
same,GI50,[30],39.2 µM
same,LC50 (concentration killing 50% of cells),[30],> 50 µM
same,TGI,[30],> 50 µM
same,growth at 10 µM,[31],73.9%
same,GI50,[32],1.63 µM
same,TGI,[32],> 50 µM
same,CC50,[32],> 50 µM
same,growth at 10 µM,[33],1.14%
same,growth at 10 µM,[34],31.4%
same,growth at 10 µM,[35],30.6%
